This is an account of results in US9150577B2, “Heterocyclic compounds containing an indole core” (Boehringer Ingelheim International GmbH, priority 2009, dated 2015).

The target of the experiment is Human RSK2 (Homo sapiens (Human), UniProt P51812). The experiment can be described thus: Human RSK2 assay (Kinase Glo Plus, residual ATP).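 Further: recombinant human RSK2 phosphorylating a substrate peptide, 90 min at 28 °C, leftover ATP read by luminescence, RLU scaled between no-kinase background and uninhibited kinase controls, 4-parameter fit.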 The class given is biochemical. Background: Kinase-Glo measures the ATP left after a reaction by luminescence.
Human RSK2, sequence (P51812 whole entry): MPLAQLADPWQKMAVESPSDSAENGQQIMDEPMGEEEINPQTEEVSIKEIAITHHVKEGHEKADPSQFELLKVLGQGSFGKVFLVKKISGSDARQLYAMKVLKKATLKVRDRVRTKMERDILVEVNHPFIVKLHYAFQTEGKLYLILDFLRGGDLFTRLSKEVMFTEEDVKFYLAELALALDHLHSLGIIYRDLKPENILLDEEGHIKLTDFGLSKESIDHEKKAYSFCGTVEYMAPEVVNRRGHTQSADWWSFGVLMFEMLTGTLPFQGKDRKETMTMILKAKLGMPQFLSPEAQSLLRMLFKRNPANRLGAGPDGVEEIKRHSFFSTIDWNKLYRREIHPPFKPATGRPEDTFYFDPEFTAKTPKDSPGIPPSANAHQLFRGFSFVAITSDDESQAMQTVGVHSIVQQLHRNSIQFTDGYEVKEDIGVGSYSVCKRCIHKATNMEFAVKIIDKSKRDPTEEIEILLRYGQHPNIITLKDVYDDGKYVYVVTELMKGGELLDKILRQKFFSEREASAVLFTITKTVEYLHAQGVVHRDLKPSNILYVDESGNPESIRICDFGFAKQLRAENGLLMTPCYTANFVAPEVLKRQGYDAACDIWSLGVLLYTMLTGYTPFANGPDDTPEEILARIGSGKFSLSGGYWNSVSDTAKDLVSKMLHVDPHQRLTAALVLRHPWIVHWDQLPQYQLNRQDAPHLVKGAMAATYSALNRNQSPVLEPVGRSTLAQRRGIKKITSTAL
Take `COc1ccccc1NC(=O)c1ccc2cc3n(c2c1)CCCNC3=O` [Example 147, N-(2-methoxyphenyl)-1-oxo-2,3,4,5-tetrahydro-1H-[1,4]diazepino[1,2-a]indole-8-carboxamide]: the IC50 stood at 400 nM. As to `CC1CNC(=O)c2cc3ccc(C(=O)Nc4cc(C(C)(C)C)on4)cc3n21` (stereo not drawn) [Example 176, N-(5-tert-butyl-1,2-oxazol-3-yl)-4-methyl-1-oxo-1,2,3,4-tetrahydropyrazino[1,2-a]indole-7-carboxamide], the IC50 is 25 nM. Regarding `CCn1c(NC(=O)c2ccc3cc4n(c3c2)CCCNC4=O)nc2cc(C)ccc21` [Example 40, N-(1-ethyl-5-methyl-1H-benzimidazol-2-yl)-1-oxo-2,3,4,5-tetrahydro-1H-[1,4]diazepino[1,2-a]indole-8-carboxamide], the IC50 amounted to 4.8 nM. The result for `O=C(Nc1ccn(-c2ccccc2)n1)c1ccc2cc3n(c2c1)CCCNC3=O` [Example 14, 1-oxo-N-(1-phenyl-1H-pyrazol-3-yl)-2,3,4,5-tetrahydro-1H-[1,4]diazepino[1,2-a]indole-8-carboxamide] reads 108 nM; that for `Cn1cc(NC(=O)c2ccc3cc4n(c3c2)C(C)(C)CNC4=O)nc1C(=O)NC1CCCC1` [Example 233, N-[2-(cyclopentylcarbamoyl)-1-methyl-1H-imidazol-4-yl]-4,4-dimethyl-1-oxo-1,2,3,4-tetrahydropyrazino[1,2-a]indole-7-carboxamide], 3.7 nM. Turning to `CN(C)CCn1c(NC(=O)c2ccc3cc4n(c3c2)CCCNC4=O)nc2ccccc21` [Example 103, N-{1-[2-(dimethylamino)ethyl]-1H-benzimidazol-2-yl}-1-oxo-2,3,4,5-tetrahydro-1H-[1,4]diazepino[1,2-a]indole-8-carboxamide], the IC50 was determined as 23 nM.

As for `CC1CNC(=O)c2cc3ccc(C(=O)Nc4nc5ccccc5n4CCCN(C)C)cc3n2C1` (stereo not drawn) [Example 101, N-{1-[3-(dimethylamino)propyl]-1H-benzimidazol-2-yl}-4-methyl-1-oxo-2,3,4,5-tetrahydro-1H-[1,4]diazepino[1,2-a]indole-8-carboxamide], the IC50 was determined as 13 nM. The result for `O=C(Nc1cnn(Cc2ccccc2)c1)c1ccc2cc3n(c2c1)CC1(CCC1)CNC3=O` [Example 138, N-(1-benzyl-1H-pyrazol-4-yl)-1′-oxo-2′,3′-dihydro-1′H-spiro[cyclobutane-1,4′-[1,4]diazepino[1,2-a]indole]-8′-carboxamide] reads 26.5 nM.

In the case of `O=C(Nc1cnn(Cc2ccccc2)c1)c1ccc2cc3n(c2c1)CC1(CC1)CNC3=O` [Example 125, N-(1-benzyl-1H-pyrazol-4-yl)-1′-oxo-2′,3′-dihydro-1′H-spiro[cyclopropane-1,4′-[1,4]diazepino[1,2-a]indole]-8′-carboxamide], the IC50 is 11 nM.

On to `CC(C)(C)n1cc(NC(=O)c2ccc3cc4n(c3c2)CCCNC4=O)cn1` [Example 191, N-(1-tert-butyl-1H-pyrazol-4-yl)-1-oxo-2,3,4,5-tetrahydro-1H-[1,4]diazepino[1,2-a]indole-8-carboxamide], for which the IC50 turned out to be 48 nM. Regarding `COc1ccnc(NC(=O)c2ccc3cc4n(c3c2)CCCNC4=O)c1` [Example 206, N-(4-methoxypyridin-2-yl)-1-oxo-2,3,4,5-tetrahydro-1H-[1,4]diazepino[1,2-a]indole-8-carboxamide], the IC50 amounted to 96 nM. `Cc1cc(NC(=O)c2ccc3cc4n(c3c2)C(C)CNC4=O)no1` (stereo not drawn) [Example 174, 4-methyl-N-(5-methyl-1,2-oxazol-3-yl)-1-oxo-1,2,3,4-tetrahydropyrazino[1,2-a]indole-7-carboxamide]: the IC50 was found to be 34 nM. Turning to `CC(C)n1c(NC(=O)c2ccc3cc4n(c3c2)C(C)CCNC4=O)nc2ccccc21` (stereo not drawn) [Example 165, 5-methyl-1-oxo-N-[1-(propan-2-yl)-1H-benzimidazol-2-yl]-2,3,4,5-tetrahydro-1H-[1,4]diazepino[1,2-a]indole-8-carboxamide], the IC50 came out at 1.8 nM. Consider `C[C@H]1NC(=O)c2cc3ccc(C(=O)Nc4cccnc4)cc3n2[C@H]1C` (relative stereo) [Example 179, Cis-3,4-dimethyl-1-oxo-N-(pyridin-3-yl)-1,2,3,4-tetrahydropyrazino[1,2-a]indole-7-carboxamide], for which the IC50 came to 45 nM. As for `O=C(Nc1ccncc1)c1ccc2cc3n(c2c1)CCCNC3=O` [Example 156, 1-oxo-N-(pyridin-4-yl)-2,3,4,5-tetrahydro-1H-[1,4]diazepino[1,2-a]indole-8-carboxamide], the IC50 amounted to 39 nM. Take `Cn1cc(NC(=O)c2ccc3cc4n(c3c2)CCCNC4=O)nc1C(=O)NC1CCCC1` [Example 232, N-[2-(cyclopentylcarbamoyl)-1-methyl-1H-imidazol-4-yl]-1-oxo-2,3,4,5-tetrahydro-1H-[1,4]diazepino[1,2-a]indole-8-carboxamide]: the IC50 was 9 nM. Consider `C[C@H]1CNC(=O)c2cc3ccc(C(=O)Nc4cnn(Cc5ccccc5)c4)cc3n2[C@H]1C` (relative stereo) [Example 136, N-(1-benzyl-1H-pyrazol-4-yl)-cis-4,5-dimethyl-1-oxo-2,3,4,5-tetrahydro-1H-[1,4]diazepino[1,2-a]indole-8-carboxamide], for which the IC50 was 9.3 nM. As for `CN(C)CCCn1c(NC(=O)c2ccc3cc4n(c3c2)CC(C)(C)CNC4=O)nc2cc(Cl)ccc21` [Example 50, N-{5-chloro-1-[3-(dimethylamino)propyl]-1H-benzimidazol-2-yl}-4,4-dimethyl-1-oxo-2,3,4,5-tetrahydro-1H-[1,4]diazepino[1,2-a]indole-8-carboxamide], the IC50 stood at 34 nM. In the case of `CC(C)n1ncc2cc(NC(=O)c3ccc4cc5n(c4c3)CCCNC5=O)cnc21` [Example 19, 1-oxo-N-[1-(propan-2-yl)-1H-pyrazolo[3,4-b]pyridin-5-yl]-2,3,4,5-tetrahydro-1H-[1,4]diazepino[1,2-a]indole-8-carboxamide], the IC50 is 53 nM. `CC1CNC(=O)c2cc3ccc(C(=O)Nc4cnn(Cc5ccccc5)c4)cc3n2C1` (stereo not drawn) [Example 135, N-(1-benzyl-1H-pyrazol-4-yl)-4-methyl-1-oxo-2,3,4,5-tetrahydro-1H-[1,4]diazepino[1,2-a]indole-8-carboxamide]: the IC50 was 7.6 nM. For `O=C(Nc1nc2ccccc2o1)c1ccc2cc3n(c2c1)CCCNC3=O` [Example 112, N-(1,3-benzoxazol-2-yl)-1-oxo-2,3,4,5-tetrahydro-1H-[1,4]diazepino[1,2-a]indole-8-carboxamide], the IC50 came out at 370 nM. Regarding `C[C@@H]1NC(=O)c2cc3ccc(C(=O)Nc4cnn(Cc5ccccc5)c4)cc3n2[C@H]1C` (relative stereo) [Example 30, N-(1-benzyl-1H-pyrazol-4-yl)-trans-3,4-dimethyl-1-oxo-1,2,3,4-tetrahydropyrazino[1,2-a]indole-7-carboxamide], the IC50 is 10 nM.

Turning to `CC(C)n1c(NC(=O)c2ccc3cc4n(c3c2)[C@H](C)CNC4=O)nc2ccccc21` [Example 68, (4R)-4-methyl-1-oxo-N-[1-(propan-2-yl)-1H-benzimidazol-2-yl]-1,2,3,4-tetrahydropyrazino[1,2-a]indole-7-carboxamide], the half-inhibitory concentration (IC50) amounted to 1.9 nM. For the compound `CCCNC(=O)c1nc(NC(=O)c2ccc3cc4n(c3c2)C(C)CNC4=O)sc1C(C)C` (stereo not drawn) [Example 235, 4-methyl-1-oxo-N-[5-(propan-2-yl)-4-(propylcarbamoyl)-1,3-thiazol-2-yl]-1,2,3,4-tetrahydropyrazino[1,2-a]indole-7-carboxamide], the IC50 is 10.9 nM.

For the compound `O=C(Nc1cccnc1)c1ccc2cc3n(c2c1)CC1(CCC1)CNC3=O` [Example 153, 1′-oxo-N-(pyridin-3-yl)-2′,3′-dihydro-1′H-spiro[cyclobutane-1,4′-[1,4]diazepino[1,2-a]indole]-8′-carboxamide], the IC50 stood at 3300 nM. For `Cc1ccc2[nH]c(NC(=O)c3ccc4cc5n(c4c3)CCCNC5=O)nc2c1` [Example 39, N-(5-methyl-1H-benzimidazol-2-yl)-1-oxo-2,3,4,5-tetrahydro-1H-[1,4]diazepino[1,2-a]indole-8-carboxamide], the IC50 was 3 nM.

For `Cc1cc(NC(=O)c2ccc3cc4n(c3c2)CC2(CCC2)CNC4=O)no1` [Example 170, N-(5-methyl-1,2-oxazol-3-yl)-1′-oxo-2′,3′-dihydro-1′H-spiro[cyclobutane-1,4′-[1,4]diazepino[1,2-a]indole]-8′-carboxamide], the IC50 turned out to be 1300 nM. On to `CCn1c(NC(=O)c2ccc3cc4n(c3c2)C(C)CCNC4=O)nc2ccccc21` (stereo not drawn) [Example 166, N-(1-ethyl-1H-benzimidazol-2-yl)-5-methyl-1-oxo-2,3,4,5-tetrahydro-1H-[1,4]diazepino[1,2-a]indole-8-carboxamide], for which the IC50 is 0.6 nM. Consider `O=C(Nc1cc(C2CCCCC2)no1)c1ccc2cc3n(c2c1)CCCNC3=O` [Example 209, N-(3-cyclohexyl-1,2-oxazol-5-yl)-1-oxo-2,3,4,5-tetrahydro-1H-[1,4]diazepino[1,2-a]indole-8-carboxamide], for which the IC50 stood at 39 nM. As for `CC(C)n1c(NC(=O)c2ccc3cc4n(c3c2)[C@@H](C)CNC4=O)nc2ccccc21` [Example 69, (4S)-4-methyl-1-oxo-N-[1-(propan-2-yl)-1H-benzimidazol-2-yl]-1,2,3,4-tetrahydropyrazino[1,2-a]indole-7-carboxamide], the IC50 amounted to 21 nM. Turning to `C[C@H]1NC(=O)c2cc3ccc(C(=O)Nc4cnn(Cc5ccccc5)c4)cc3n2[C@H]1C` [Example 142, (3R,4S)-N-(1-benzyl-1H-pyrazol-4-yl)-3,4-dimethyl-1-oxo-1,2,3,4-tetrahydropyrazino[1,2-a]indole-7-carboxamide], the IC50 stood at 65.5 nM. For `Cc1ccccc1Cn1cc(NC(=O)c2ccc3cc4n(c3c2)CCCNC4=O)cn1` [Example 34, N-[1-(2-methylbenzyl)-1H-pyrazol-4-yl]-1-oxo-2,3,4,5-tetrahydro-1H-[1,4]diazepino[1,2-a]indole-8-carboxamide], the IC50 was determined as 7.9 nM.

Turning to `CN(C)CCCn1c(NC(=O)c2ccc3cc4n(c3c2)CC2(CCC2)CNC4=O)nc2ccccc21` [Example 97, N-{1-[3-(dimethylamino)propyl]-1H-benzimidazol-2-yl}-1′-oxo-2′,3′-dihydro-1′H-spiro[cyclobutane-1,4′-[1,4]diazepino[1,2-a]indole]-8′-carboxamide], the IC50 amounted to 11 nM.

Broadly, the IC50 is the concentration needed to halve the response being measured.
